Data from ChEMBL document CHEMBL1201862, “PubChem BioAssay data set” (2004).
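In this assay, cells in 96-well plates receive the compound at five concentrations for 48 hours. Endpoints are linearly interpolated between the surrounding concentrations. GI50: concentration for 50% inhibition of growth.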 Activity calls are given as the source filed them. No stated cut-off is given here; in the data, active = GI50 up to about 1.1 µM and inactive = higher.

Tests used:
Experiment in all cases: DTP human tumour cell line panel, 48 h
[1] = test system: SW-620
[2] = test system: HOP-92
[3] = test system: TK-10
[4] = test system: KM12
[5] = test system: OVCAR-8
[6] = test system: RXF 393
[7] = test system: SF-268
[8] = test system: SK-MEL-28
[9] = test system: Hs-578T
[10] = test system: OVCAR-4
[11] = test system: NCI-H522
[12] = test system: NCI-H23
[13] = test system: Malme-3M
[14] = test system: MDA-MB-435
[15] = test system: SK-OV-3
[16] = test system: IGROV-1
[17] = test system: U-251
[18] = test system: A549
[19] = test system: SR
[20] = test system: A498

Row | SMILES | GI50 [1] | GI50 [2] | GI50 [3] | GI50 [4] | GI50 [5] | GI50 [6] | GI50 [7] | GI50 [8] | GI50 [9] | GI50 [10] | GI50 [11] | GI50 [12] | GI50 [13] | GI50 [14] | GI50 [15] | GI50 [16] | GI50 [17] | GI50 [18] | GI50 [19] | GI50 [20]
1 | COc1ccc(C2SC(=N)Nc3c2c(C)nn3C(=O)c2ccc(Cl)cc2)cc1 (configuration not stated) | > 10 µM (inactive) | > 10 µM (inactive) | > 10 µM (inactive) | > 10 µM (inactive) | > 10 µM (inactive) | > 10 µM (inactive) | > 10 µM (inactive) | > 10 µM (inactive) | > 10 µM (inactive) | > 10 µM (inactive) | > 10 µM (inactive) | > 10 µM (inactive) | > 10 µM (inactive) | > 10 µM (inactive) | > 10 µM (inactive) | > 10 µM (inactive) | > 10 µM (inactive) | > 10 µM (inactive) |  | 
2 | C1CSCCSS[C@@H]2CCCCC2SC1 (some centres not stated) | > 100 µM (inactive) | 29.2 µM (inactive) | > 100 µM (inactive) | > 100 µM (inactive) | > 100 µM (inactive) |  | > 100 µM (inactive) | > 100 µM (inactive) |  | > 100 µM (inactive) | > 100 µM (inactive) | > 100 µM (inactive) |  | > 100 µM (inactive) | > 100 µM (inactive) | > 100 µM (inactive) | > 100 µM (inactive) | > 100 µM (inactive) | > 100 µM (inactive) | 
3 | COc1ccc([C@@]23OC[C@@H]4[C@@H](OC[C@@H]42)c2cc(OC)c(OC)cc23)cc1OC | > 100 µM (inactive) |  | > 100 µM (inactive) | > 100 µM (inactive) |  | > 100 µM (inactive) |  | > 100 µM (inactive) |  | > 100 µM (inactive) | > 100 µM (inactive) | > 100 µM (inactive) | > 100 µM (inactive) | > 100 µM (inactive) | > 100 µM (inactive) | > 100 µM (inactive) | > 100 µM (inactive) | > 100 µM (inactive) | > 100 µM (inactive) | > 100 µM (inactive)
4 | Cn1c(SCc2ccc([N+](=O)[O-])cc2)nnc1C12CC3CC(CC(C3)C1)C2 | > 10 µM (inactive) | > 10 µM (inactive) |  | > 10 µM (inactive) | > 10 µM (inactive) | > 10 µM (inactive) | > 10 µM (inactive) | > 10 µM (inactive) | > 10 µM (inactive) | > 10 µM (inactive) | > 10 µM (inactive) | > 10 µM (inactive) | > 10 µM (inactive) | > 10 µM (inactive) | > 10 µM (inactive) | > 10 µM (inactive) | > 10 µM (inactive) | > 10 µM (inactive) |  | > 10 µM (inactive)
5 | COc1cc2c3c(n(C)c(=O)c2cc1OC)-c1cc2c(cc1/C3=C\CCCCl)OCO2 | > 100 µM (inactive) | 82.2 µM (inactive) | 20.1 µM (inactive) | 23.8 µM (inactive) | 49.4 µM (inactive) | 12.9 µM (inactive) | 43.6 µM (inactive) | 89.7 µM (inactive) | 47.4 µM (inactive) | 49.7 µM (inactive) | 20.8 µM (inactive) | 19.9 µM (inactive) | > 100 µM (inactive) |  | 23 µM (inactive) | 25.4 µM (inactive) | 25.2 µM (inactive) | > 100 µM (inactive) |  | 25.3 µM (inactive)
6 | O=C1CCCc2ccc([N+](=O)[O-])c(O)c21 | > 100 µM (inactive) | 68.1 µM (inactive) | 55.7 µM (inactive) | > 100 µM (inactive) | > 100 µM (inactive) | 55.1 µM (inactive) | 69.8 µM (inactive) | > 100 µM (inactive) |  | > 100 µM (inactive) | 66.8 µM (inactive) | > 100 µM (inactive) | 34.4 µM (inactive) |  | > 100 µM (inactive) | 82.6 µM (inactive) | 59.3 µM (inactive) | 96.2 µM (inactive) | 85.7 µM (inactive) | 50.7 µM (inactive)
7 | CC12CCCC(O)C1CCC1=CC3(CCC12)SCCS3 (configuration not stated) | > 10 µM (inactive) | > 10 µM (inactive) | > 10 µM (inactive) | > 10 µM (inactive) | > 10 µM (inactive) |  | > 10 µM (inactive) | > 10 µM (inactive) |  | > 10 µM (inactive) | > 10 µM (inactive) | > 10 µM (inactive) | > 10 µM (inactive) | > 10 µM (inactive) | > 10 µM (inactive) | > 10 µM (inactive) | > 10 µM (inactive) | > 10 µM (inactive) | > 10 µM (inactive) | 
8 | O=c1[nH]c(=O)n(COCc2ccccc2)c2ccc(Br)cc12 | > 100 µM (inactive) | > 100 µM (inactive) | > 100 µM (inactive) | > 100 µM (inactive) | 90.8 µM (inactive) | > 100 µM (inactive) |  | > 100 µM (inactive) |  | 60.8 µM (inactive) |  |  |  | > 100 µM (inactive) | > 100 µM (inactive) | > 100 µM (inactive) | > 100 µM (inactive) | > 100 µM (inactive) | > 100 µM (inactive) | > 100 µM (inactive)
9 | COC(=O)C(NC(=O)CSc1nnc(COc2ccc(Cl)cc2)n1-c1ccccc1)C(C)C (configuration not stated) | 56.4 µM (inactive) | 21.6 µM (inactive) | 15.6 µM (inactive) | 19.1 µM (inactive) | 23.7 µM (inactive) | 24 µM (inactive) | 20.7 µM (inactive) | 21.5 µM (inactive) |  | 25.6 µM (inactive) | 10.6 µM (inactive) | 25.4 µM (inactive) | 16.5 µM (inactive) | 19.9 µM (inactive) | 37.2 µM (inactive) | 16.3 µM (inactive) | 51.4 µM (inactive) | 35.2 µM (inactive) | 1.08 µM (active) | 21.2 µM (inactive)
10 | CC1(C)c2ccccc2C(=O)C12CCC(=O)CC2 | > 100 µM (inactive) |  | > 100 µM (inactive) | > 100 µM (inactive) | > 100 µM (inactive) | 12.4 µM (inactive) | > 100 µM (inactive) | > 100 µM (inactive) | 69.8 µM (inactive) | > 100 µM (inactive) | > 100 µM (inactive) | > 100 µM (inactive) | 60.5 µM (inactive) |  | > 100 µM (inactive) | > 100 µM (inactive) | > 100 µM (inactive) | > 100 µM (inactive) | > 100 µM (inactive) | 
11 | CCOC(=O)N/N=C(\Cc1ccc([N+](=O)[O-])cc1)OCC | > 100 µM (inactive) | > 100 µM (inactive) | > 100 µM (inactive) | > 100 µM (inactive) | > 100 µM (inactive) | > 100 µM (inactive) | > 100 µM (inactive) |  |  | > 100 µM (inactive) | > 100 µM (inactive) | > 100 µM (inactive) |  | > 100 µM (inactive) | > 100 µM (inactive) | > 100 µM (inactive) | > 100 µM (inactive) | > 100 µM (inactive) | > 100 µM (inactive) | 
12 | C[Si](C)(C)c1ccc(-c2c3ccc(-c4cc(Br)cc(Br)c4)nc3nc3nc(-c4cc(Br)cc(Br)c4)ccc23)cc1 |  | > 100 µM (inactive) | > 100 µM (inactive) | > 100 µM (inactive) |  |  | > 100 µM (inactive) | > 100 µM (inactive) |  | > 100 µM (inactive) | > 100 µM (inactive) | > 100 µM (inactive) | > 100 µM (inactive) | > 100 µM (inactive) | > 100 µM (inactive) |  | > 100 µM (inactive) | > 100 µM (inactive) |  | > 100 µM (inactive)
